According to patent US20050245563A1 (Millennium Pharmaceuticals, Inc., priority 2003, published 2005):

These compounds were tested against T1, human Chk1 (GST-Chk1) (Homo sapiens, UniProt O14757) (assay: Chk1 FlashPlate kinase assay). Settings: 8.7 nM GST-Chk1, 1 uM ATP, 33P incorporation into peptide substrate.
T1 construct: made in house; host or cells: insect cells (baculovirus, Bac-to-Bac)
T1 sequence (O14757 1-476): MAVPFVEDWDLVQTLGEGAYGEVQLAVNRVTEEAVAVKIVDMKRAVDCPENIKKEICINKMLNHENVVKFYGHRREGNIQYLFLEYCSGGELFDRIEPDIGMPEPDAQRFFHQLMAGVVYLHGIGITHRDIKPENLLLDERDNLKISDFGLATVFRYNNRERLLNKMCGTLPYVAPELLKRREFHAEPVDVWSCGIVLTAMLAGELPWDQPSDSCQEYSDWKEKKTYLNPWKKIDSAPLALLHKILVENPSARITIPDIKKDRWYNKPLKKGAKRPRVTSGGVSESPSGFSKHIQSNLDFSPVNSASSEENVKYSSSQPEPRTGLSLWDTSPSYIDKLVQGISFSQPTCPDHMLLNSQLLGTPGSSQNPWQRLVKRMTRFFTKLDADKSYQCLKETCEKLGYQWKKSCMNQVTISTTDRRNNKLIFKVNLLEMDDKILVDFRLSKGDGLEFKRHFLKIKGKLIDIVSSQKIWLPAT
Format: biochemical
Experimental: Recombinant human Chk1 was expressed as a fusion protein with glutathione S-transferase at the amino-terminus (GST-Chk1) using standard baculovirus vectors and (Bac-to-Bac®) insect cell expression system purchased from GIBCO™ Invitrogen. Recombinant protein expressed in insect cells was purified using glutathione sepharose (Amersham Biotech) using standard procedures described by the manufacturer.
Chk1 FlashPlate® Kinase Assay:
Assays (25 μL) contained 8.7 nM GST-Chk1, 10 mM MES, 0.1 mM ethylene glycol-bis(β-aminoethylether)-N,N,N′,N′-tetracetic acid (EGTA, pH 8.0), 2 mM DTT, 0.05% Tween 20, 3 uM peptide substrate (Biotin-ILSRRPSYRKILND-free acid) (SEQ ID NO: 1), 1 uM ATP, 0.4 uCi ^33P-γ-ATP (NEN), 4% DMSO. Reactions were incubated for 30 minutes at room temperature, terminated with 50 μL of 50 mM EDTA and 90 μL were transferred to streptavidin-coated FlashPlates® (NEN) and incubated for 1 hour at room temperature. Plates were washed with phosphate buffered salaine containing 0.01% Tween-20 and 10 mM sodium pyrophosphate. Plates were dried, sealed with Topseal™ (NEN) and amount of ^33P incorporated into the peptide substate measure using a Packard Topcount® NXT™ scintillation counter with standard settings.

Row | IC50 [nM] | Compound
1 | < 1000 | Cc1n[nH]c2c1c(=O)n(CCCCNC(=O)OC(C)(C)C)c1ccc(Br)cc21 [Example 29, [4-(8-Bromo-3-methyl-4-oxo-1,4-dihydro-pyrazolo[4,3-c]quinolin-5-yl)-butyl]-carbamic acid tert-butyl ester]
2 | 1000 to 20000 | Cc1[nH]nc2c1c(=O)n(CCNC(=O)C1CCCC1)c1ccccc21 [Example 94, Cyclopentanecarboxylic acid [2-(3-methyl-4-oxo-2,4-dihydro-pyrazolo[4,3-c]quinolin-5-yl)-ethyl]-amide]
3 | < 1000 | Cc1n[nH]c2c1c(=O)n(CCCNC(=O)OC(C)(C)C)c1ccccc21 [Example 6, [3-(3-Methyl-4-oxo-1,4-dihydro-pyrazolo[4,3-c]quinolin-5-yl)-propyl]-carbamic acid tert-butyl ester]
4 | < 1000 | Cc1[nH]nc2c1c(=O)n(CCCNC(=O)OCc1ccccc1Br)c1ccccc21 [Example 119, [3-(3-Methyl-4-oxo-2,4-dihydro-pyrazolo[4,3-c]quinolin-5-yl)-propyl]-carbamic acid 2-bromo-benzyl ester]
5 | < 1000 | Cc1n[nH]c2c1c(=O)n(CCCN)c1ccccc21 [Example 15, 5-(3-Amino-propyl)-3-methyl-1,5-dihydro-pyrazolo[4,3-c]quinolin-4-one]
6 | 1000 to 20000 | Cc1[nH]nc2c1c(=O)n(CCNC(=O)c1ccc(Cl)cc1)c1ccccc21 [Example 90, 4-Chloro-N-[2-(3-methyl-4-oxo-2,4-dihydro-pyrazolo[4,3-c]quinolin-5-yl)-ethyl]-benzamide]
7 | < 1000 | Cc1[nH]nc2c1c(=O)n(CCCNC(=O)c1ccc(C(C)(C)C)cc1)c1ccccc21 [Example 85, 4-tert-Butyl-N-[3-(3-methyl-4-oxo-2,4-dihydro-pyrazolo[4,3-c]quinolin-5-yl)-propyl]-benzamide]
8 | < 1000 | Cc1[nH]nc2c1c(=O)n(CCCNC(=O)c1ccc(Cl)c(Cl)c1)c1ccccc21 [Example 76, 3,4-Dichloro-N-[3-(3-methyl-4-oxo-2,4-dihydro-pyrazolo[4,3-c]quinolin-5-yl)-propyl]-benzamide]
9 | < 1000 | Cc1ccc2c(c1)c1n[nH]c(C)c1c(=O)n2CCCNC(=O)OC(C)(C)C [Example 44, [3-(3,8-Dimethyl-4-oxo-2,4-dihydro-pyrazolo[4,3-c]quinolin-5-yl)-propyl]-carbamic acid tert-butyl ester]
10 | < 1000 | COc1ccc2c(c1)c1n[nH]c(C)c1c(=O)n2CCCNC(=O)OC(C)(C)C [Example 79, [3-(8-Methoxy-3-methyl-4-oxo-2,4-dihydro-pyrazolo[4,3-c]quinolin-5-yl)-propyl]-carbamic acid tert-butyl ester]
11 | < 1000 | Cc1[nH]nc2c1c(=O)n(CCCNC(=O)c1ccc(Cl)cc1)c1cc(Cl)ccc21 [Example 75, 4-Chloro-N-[3-(7-chloro-3-methyl-4-oxo-2,4-dihydro-pyrazolo[4,3-c]quinolin-5-yl)-propyl]-benzamide]
12 | < 1000 | Cc1n[nH]c2c1c(=O)n(CCCNCc1ccccc1)c1ccccc21 [Example 5, 5-(3-Benzylamino-propyl)-3-methyl-1,5-dihydro-pyrazolo[4,3-c]quinolin-4-one]
13 | < 1000 | Cc1n[nH]c2c1c(=O)n(CCO)c1ccccc21 [Example 10, 5-(2-Hydroxy-ethyl)-3-methyl-1,5-dihydro-pyrazolo[4,3-c]quinolin-4-one]
14 | < 1000 | Cc1[nH]nc2c1c(=O)n(CCCN)c1ccc(N3CCN(C)CC3)cc21 [Example 121, 5-(3-Amino-propyl)-3-methyl-8-(4-methyl-piperazin-1-yl)-2,5-dihydro-pyrazolo[4,3-c]quinolin-4-one]
15 | < 1000 | Cc1[nH]nc2c1c(=O)n(CCCNC(=O)CC(C)C)c1ccccc21 [Example 35, 3-Methyl-N-[3-(3-methyl-4-oxo-2,4-dihydro-pyrazolo[4,3-c]quinolin-5-yl)-propyl]-butyramide]
16 | < 1000 | Cc1[nH]nc2c1c(=O)n(CCCN)c1ccc(Cl)cc21 [Example 32, 5-(3-Amino-propyl)-8-chloro-3-methyl-1,5-dihydro-pyrazolo[4,3-c]quinolin-4-one]

Row | IC50 [nM] | Compound
17 | < 1000 | Cc1[nH]nc2c1c(=O)n(CCCNC(=O)CCc1ccccc1)c1ccccc21 [Example 62, N-[3-(3-Methyl-4-oxo-2,4-dihydro-pyrazolo[4,3-c]quinolin-5-yl)-propyl]-3-phenyl-propionamide]
18 | < 1000 | Cc1[nH]nc2c1c(=O)n(CCCNC(=O)c1cccc(Cl)c1)c1ccccc21 [Example 71, 3-Chloro-N-[3-(3-methyl-4-oxo-2,4-dihydro-pyrazolo[4,3-c]quinolin-5-yl)-propyl]-benzamide]
19 | < 1000 | NCCCn1c(=O)c2c[nH]nc2c2cc(Cl)ccc21 [Example 109, 5-(3-Amino-propyl)-8-chloro-2,5-dihydro-pyrazolo[4,3-c]quinolin-4-one]
20 | 1000 to 20000 | Cc1[nH]nc2c1c(=O)n(CCCNC(=O)C(N)Cc1ccc(OCc3ccccc3)cc1)c1ccccc21 (centres unmarked) [Example 107, 2-Amino-3-(4-benzyloxy-phenyl)-N-[3-(3-methyl-4-oxo-2,4-dihydro-pyrazolo[4,3-c]quinolin-5-yl)-propyl]-propionamide]
21 | < 1000 | Cc1n[nH]c2c1c(=O)n(CCCCNC(=O)Nc1ccccc1)c1ccc(Br)cc21 [Example 67, 1-[4-(8-Bromo-3-methyl-4-oxo-1,4-dihydro-pyrazolo[4,3-c]quinolin-5-yl)-butyl]-3-phenyl-urea]
22 | < 1000 | COCCc1[nH]nc2c1c(=O)n(CCCN)c1ccc(Cl)cc21 [Example 50, 5-(3-Amino-propyl)-8-chloro-3-(2-methoxy-ethyl)-2,5-dihydro-pyrazolo[4,3-c]quinolin-4-one]
23 | < 1000 | Cc1[nH]nc2c1c(=O)n(CCCNC(=O)c1ccc(F)cc1)c1ccccc21 [Example 64, 4-Fluoro-N-[3-(3-methyl-4-oxo-2,4-dihydro-pyrazolo[4,3-c]quinolin-5-yl)-propyl]-benzamide]
24 | < 1000 | Cc1[nH]nc2c1c(=O)n(CCCNC(=O)N1CCOCC1)c1ccccc21 [Example 74, Morpholine-4-carboxylic acid [3-(3-methyl-4-oxo-2,4-dihydro-pyrazolo[4,3-c]quinolin-5-yl)-propyl]-amide]
25 | 1000 to 20000 | Cc1n[nH]c2c1c(=O)n(CC1CCN(C(=O)OC(C)(C)C)CC1)c1ccc(Br)cc21 [Example 37, 4-(8-Bromo-3-methyl-4-oxo-1,4-dihydro-pyrazolo[4,3-c]quinolin-5-ylmethyl)-piperidine-1-carboxylic acid tert-butyl ester]
26 | < 1000 | Cc1[nH]nc2c1c(=O)n(CCCNC(=O)c1ccccc1Cl)c1ccccc21 [Example 84, 2-Chloro-N-[3-(3-methyl-4-oxo-2,4-dihydro-pyrazolo[4,3-c]quinolin-5-yl)-propyl]-benzamide]
27 | < 1000 | Cc1n[nH]c2c1c(=O)n(CCCO)c1ccccc21 [Example 14, 5-(3-Hydroxy-propyl)-3-methyl-1,5-dihydro-pyrazolo[4,3-c]quinolin-4-one]
28 | < 1000 | Cc1[nH]nc2c1c(=O)n(CCCNC(=O)C(N)CCCCN)c1ccccc21 (centres unmarked) [Example 123, 2,6-Diamino-hexanoic acid [3-(3-methyl-4-oxo-2,4-dihydro-pyrazolo[4,3-c]quinolin-5-yl)-propyl]-amide]
29 | > 20000 | Cc1[nH]nc2c1c(=O)n(CCCNC(=O)C(Cc1ccc(Cl)cc1)NC(=O)OC(C)(C)C)c1ccccc21 (centres unmarked) [Example 96, {2-(4-Chloro-phenyl)-1-[3-(3-methyl-4-oxo-2,4-dihydro-pyrazolo[4,3-c]quinolin-5-yl)-propylcarbamoyl]-ethyl}-carbamic acid tert-butyl ester]
30 | < 1000 | Cc1n[nH]c2c1c(=O)n(CCNC(=O)C(N)Cc1ccccc1)c1ccccc21 (centres unmarked) [Example 105, 2-Amino-N-[2-(3-methyl-4-oxo-1,4-dihydro-pyrazolo[4,3-c]quinolin-5-yl)-ethyl]-3-phenyl-propionamide]
31 | < 1000 | COc1ccc(C(=O)NCCCn2c(=O)c3c(C)[nH]nc3c3ccccc32)cc1 [Example 69, 4-Methoxy-N-[3-(3-methyl-4-oxo-2,4,5a,9a-tetrahydro-pyrazolo[4,3-c]quinolin-5-yl)-propyl]-benzamide]
32 | < 1000 | Cc1[nH]nc2c1c(=O)n(CCCNC(=O)c1ccc([N+](=O)[O-])cc1)c1ccccc21 [Example 61, N-[3-(3-Methyl-4-oxo-2,4-dihydro-pyrazolo[4,3-c]quinolin-5-yl)-propyl]-4-nitro-benzamide]
